Data taken from patent US20060205949A1, “Crystalline forms of a biphenyl compound” (THERAVANCE, INC., priority 2005, published 2006).

What was measured:
[1] = pH 4.5
Experimental: A solution was prepared with 0.1 mg/mL freebase equivalents (using a crystalline mononapadisylate salt prepared as described in Example 2) in 10 mM citrate buffered normal saline, pH 4.5. […] Less than 0.5% degradation was observed after storage for one month at 40° C./75% RH.

[2] = Differential scanning calorimetry (thermal stability); type: physicochemical; conditions: DSC trace, 10° C./min
Experimental: Differential scanning calorimetry (DSC) was performed using a TA Instruments Model Q-10 module with a Thermal Analyst controller. Data were collected and analyzed using TA Instruments Thermal Solutions software. A sample of about 1 mg was accurately weighed into an aluminum pan with lid. The sample was evaluated using a linear heating ramp of 10° C./min from ambient temperature to approximately 250° C. The DSC cell was purged with dry nitrogen during use.

[3] = 6 weeks; −20° C. closed, 40° C./75% RH open and closed, 50° C. closed; all conditions
Experimental: Samples of the crystalline mononapadisylate salt of Example 2, about 200 mg each, were stored in multiple 3 mL borosilicate vials at −20° C. (closed container), 40° C./75% RH (open and closed container), and at 50° C. (closed container). At specific intervals, the entire contents of a representative vial was analyzed by the following HPLC method:
Column: Agilent Zorbox SB-C18, 4.6×250 mm, 5 μm; Mobile Phase A: 98% water, 2% ACN, 0.1% TFA; Mobile Phase B: 10% water, 90% ACN; 0.1% TFA; Flow rate: 1 mL/min; Injection Volume: 20 μL; Detector: 220 nm; Gradient-Time in minutes (% Mobile Phase B): 0.0 (10); 4.00 (20); 26.00 (28); 34.40 (100); 38.40 (100); 38.50 (10); and 45.00 (10). […] These stock solutions were diluted to 1 mg/mL in 10% ACN for injection onto the HPLC.

[4] = Dynamic moisture sorption (DMS) assessment; type: physicochemical
Experimental: A dynamic moisture sorption (DMS) assessment (also known as a moisture sorption-desorption profile) was performed for samples of the crystalline naphthalene-1,5-disulfonic acid salts using a VTI atmospheric microbalance, SGA-100 system (VTI Corp., Hialeah, Fla. 33016). A sample size of approximately 10 mg was used and the humidity was set at the ambient value at the start of the analysis. A typical DMS analysis consisted of three scans: ambient to 2% relative humidity (RH), 2% RH to 90% RH, 90% RH to 5% RH at a scan rate of 5% RH/step. The mass was measured every two minutes and the RH was changed to the next value (+/−5% RH) when the mass of the sample was stable to within 0.01% for 5 consecutive points.

[5] = Pre-Micronization

O=C(CCN1CCC(OC(=O)Nc2ccccc2-c2ccccc2)CC1)NCCCCCNCc1ccc(O)cc1.O=S(=O)(O)c1cccc2c(S(=O)(=O)O)cccc12 [Crystalline Mononapadisylate Salt of Biphenyl-2-ylcarbamic Acid 1-2-[5-(4-Hydroxybenzylamino)pentylcarbamoyl]ethyl]piperidin-4-yl Ester]
degradation in solution ([1]; 0.1 mg/mL freebase equivalents in 10 mM citrate buffered normal saline, one month at 40° C./75% RH): Less than 0.5% | solubility ([1]; 10 mM citrate buffered normal saline): approximately 0.4 mg/mL | thermal decomposition temperature (no thermal decomposition below) [2]: ≥ 225 °C | change in chemical purity (HPLC) [3]: no detectable change | change in the appearance of the material [3]: no observable change | sorption/desorption profile and hygroscopicity ([4]; DMS trace): reversible sorption/desorption profile with low hygroscopicity | weight gain ([4]; exposed to 2-90% RH): 4.5% | weight gain ([4]; humidity range of 40-70% RH): 0.7% | weight gain ([4]; humidity range of 40-75% RH): 0.8% | weight gain ([4]; humidity range of 40-75% RH, listed as crystalline mononapadisylate salt of the compound of formula I): less than 0.8% | particle size D (v, 0.1) [5]: 2.5 μm | particle size D (v, 0.5) [5]: 9.4 μm | particle size D (v, 0.9) [5]: 22.1 μm
